Experimental data as given in patent US9206130B2, “Quinoline derivatives as AXL kinase inhibitors” (Max-Planck-Gesellschaft zur Förderung der Wissenschaften …, priority 2008, dated 2015).

What was measured:
[1] = biological target: T1, wild type AXL (wtAXL) receptor tyrosine kinase (Homo sapiens, UniProt P30530); assay: NIH-3T3-AXL cellular tyrosine kinase assay (inhibition of AXL phosphorylation); format: cell-based; settings: AXL phosphorylation in NIH-3T3-AXL (clone 22) cells, serum-depleted, 2 h with compound, immunoprecipitation / anti-phosphotyrosine blot
T1 construct: WtAXL cDNA was cloned into vector pLXSN(ESK) and transfected into Phoenix E packaging cells; expressed in transfected cells; host or cells: NIH3T3 N7 mouse fibroblasts, retrovirally infected (clone 22)
T1 sequence (P30530 26-894): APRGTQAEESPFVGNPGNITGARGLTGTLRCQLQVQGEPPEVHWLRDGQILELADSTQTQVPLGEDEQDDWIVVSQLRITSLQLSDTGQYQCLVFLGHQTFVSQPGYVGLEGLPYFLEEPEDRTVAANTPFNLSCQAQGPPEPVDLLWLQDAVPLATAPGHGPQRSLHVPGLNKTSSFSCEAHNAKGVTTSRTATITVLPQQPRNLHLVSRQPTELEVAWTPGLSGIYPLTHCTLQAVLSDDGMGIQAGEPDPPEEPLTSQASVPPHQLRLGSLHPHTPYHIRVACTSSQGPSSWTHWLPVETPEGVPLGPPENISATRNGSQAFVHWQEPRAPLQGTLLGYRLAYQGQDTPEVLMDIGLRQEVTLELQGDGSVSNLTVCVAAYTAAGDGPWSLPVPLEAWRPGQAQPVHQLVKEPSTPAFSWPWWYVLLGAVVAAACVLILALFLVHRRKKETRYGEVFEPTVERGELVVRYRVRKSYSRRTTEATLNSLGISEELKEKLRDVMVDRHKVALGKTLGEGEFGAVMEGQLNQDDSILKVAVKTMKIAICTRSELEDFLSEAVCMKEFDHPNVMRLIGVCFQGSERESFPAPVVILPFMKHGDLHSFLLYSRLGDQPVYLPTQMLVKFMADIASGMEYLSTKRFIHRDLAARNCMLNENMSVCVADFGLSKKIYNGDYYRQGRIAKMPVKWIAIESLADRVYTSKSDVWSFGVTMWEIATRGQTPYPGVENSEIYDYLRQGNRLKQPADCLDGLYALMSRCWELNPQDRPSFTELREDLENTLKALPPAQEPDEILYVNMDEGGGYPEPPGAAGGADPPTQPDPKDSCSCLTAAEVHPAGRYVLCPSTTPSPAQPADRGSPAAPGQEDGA
Method: 3) Inhibitory Activity of Compounds on Axl Phosphorylation in NIH-3T3-AXL Cellular Tyrosine Kinase Assay
The viral supernatant was collected and used to infect target cells NIH3T3 N7. Monoclonal NIH3T3-AXL cell lines stably expressing wtAXL were generated by selecting retrovirally infected cells in medium containing puromycin (2 μg/ml) and subsequent clonal separation.
NIH-3T3-AXL Cellular Kinase Assay
Serial dilutions of compounds were added, and the cells were further incubated or 2 h. […] The clarified cell lysate (10 min at 13000 rpm at 4° C.) were used for immunoprecipitation. Equal amounts of protein were mixed with 2 μg anti-AXL polyclonal antibody (homemade) and 20 μl Protein A sepharose beads, and rotated for 6 hr at 4° C. After immunoprecipitation, the beads were washed three times with 1×HNTG (50 mM HEPES (pH 7.5), 150 mM NaCl, 10% Glycerol, 0.2% Triton X-100). The final pellet was suspended in 20 μl 2× Laemmli buffer, and boiled for 5 min at 100° C. […] The membrane was then incubated with anti-phosphotyrosine antibody (4G10) overnight at 4° C. followed by washing with 1×TBST buffer three times. After incubating membrane with HRP-conjugated anti-mouse secondary antibody for 1 hour at room temperature followed by washing with 1×TBST buffer three times, the proteins were visualized by ECL.

SMILES | IC50 [1] | melting point
COc1cc2nccc(Oc3ccc(NS(=O)(=O)c4cc(F)ccc4F)c(C)c3)c2cc1OC [Example A151, N-[4-(6,7-Dimethoxy-quinolin-4-yloxy)-2-methyl-phenyl]-2,5-difluoro-benzenesulfonamide] | > 10 µM | 259 to 260 °C
COc1cc2nccc(Oc3ccc(NS(=O)(=O)c4ccc(Br)c(C)c4)c(F)c3)c2cc1OC [Example A19, 4-Bromo-N-[4-(6,7-dimethoxy-quinolin-4-yloxy)-2-fluoro-phenyl]-3-methyl-benzenesulfonamide] | 4.5 µM | 199 to 201 °C
COc1cc2nccc(Oc3ccc(NS(=O)(=O)c4cc(F)ccc4F)cc3F)c2cc1OC [Example A99, N-[4-(6,7-Dimethoxy-quinolin-4-yloxy)-3-fluoro-phenyl]-2,5-difluoro-benzenesulfonamide] | 0.18 µM | 232 to 234 °C
Cc1cc(Oc2ccc(NS(=O)(=O)c3cccc(C#N)c3)c(F)c2)c2cc(F)ccc2n1 [Example B2, 3-Cyano-N-[2-fluoro-4-(6-fluoro-2-methyl-quinolin-4-yloxy)-phenyl]-benzenesulfonamide] | > 10 µM | 190 to 191 °C
COc1cc2c(Oc3ccc(NS(=O)(=O)c4ccc(Cl)cc4F)cc3F)ccnc2cc1OCCCN1CCCC(C)C1 (stereo not drawn) [Example D24, 4-Chloro-2-fluoro-N-(3-fluoro-4-{6-methoxy-7-[3-(3-methyl-piperidin-1-yl)-propoxy]-quinolin-4-yloxy}-phenyl)-benzenesulfonamide] | 0.181 µM | 136 to 138 °C
Cc1cc(Oc2ccc(NS(=O)(=O)c3cc(F)ccc3F)c(F)c2)c2cccc(C(F)(F)F)c2n1 [Example C11, 2,5-Difluoro-N-[2-fluoro-4-(2-methyl-8-trifluoromethyl-quinolin-4-yloxy)-phenyl]-benzenesulfonamide] | > 10 µM | 179 to 181 °C
COc1cc2nccc(Oc3ccc(NS(=O)(=O)c4ccc(OC)c5ccccc45)cc3C)c2cc1OC [Example A130, 4-Methoxy-naphthalene-1-sulfonic acid [4-(6,7-dimethoxy-quinolin-4-yloxy)-3-methyl-phenyl]-amide] | > 10 µM | 233 to 235 °C
COc1cc2nccc(Oc3ccc(NS(=O)(=O)c4ccc(Br)c(F)c4)c(F)c3)c2cc1OC [Example A11, 4-Bromo-N-[4-(6,7-dimethoxy-quinolin-4-yloxy)-2-fluoro-phenyl]-3-fluoro-benzenesulfonamide] | 2.26 µM | 209 to 211 °C
COc1cc2nccc(Oc3ccc(NS(=O)(=O)c4ccc(F)c(Cl)c4)c(F)c3)c2cc1OC [Example A12, 3-Chloro-N-[4-(6,7-dimethoxy-quinolin-4-yloxy)-2-fluoro-phenyl]-4-fluoro-benzenesulfonamide] | 1.26 µM | 208 to 210 °C
COc1cc(S(=O)(=O)Nc2ccc(Oc3ccnc4cc(OC)c(OC)cc34)cc2C)ccc1F [Example A154, N-[4-(6,7-Dimethoxy-quinolin-4-yloxy)-2-methyl-phenyl]-4-fluoro-3-methoxy-benzenesulfonamide] | > 10 µM | 228 to 229 °C
COc1cc(S(=O)(=O)Nc2ccc(Oc3ccnc4cc(OC)c(OC)cc34)c(OC)c2)ccc1F [Example A121, N-[4-(6,7-Dimethoxy-quinolin-4-yloxy)-3-methoxy-phenyl]-4-fluoro-3-methoxy-benzenesulfonamide] | > 10 µM | 109 to 110 °C

Second part, the molecule after the results:

IC50 [1] | melting point | SMILES
5.05 µM | 188 to 190 °C | COc1cc2nccc(Oc3ccc(NS(=O)(=O)c4ccc(F)c(F)c4F)c(F)c3)c2cc1OC [Example A20, N-[4-(6,7-Dimethoxy-quinolin-4-yloxy)-2-fluoro-phenyl]-2,3,4-trifluoro-benzenesulfonamide]
> 1 µM | 258 to 259 °C | Cc1cc(Oc2ccc(NS(=O)(=O)c3cnc(C)[nH]3)cc2F)c2cccc(C(F)(F)F)c2n1 [Example C13, 2-Methyl-3H-imidazole-4-sulfonic acid [3-fluoro-4-(2-methyl-8-trifluoromethyl-quinolin-4-yloxy)-phenyl]-amide]
> 3 µM | 237 to 239 °C | COc1cc2nccc(Oc3ccc(NS(=O)(=O)c4ccc(Br)cc4OC(F)(F)F)cc3)c2cc1OC [Example A149, 4-Bromo-N-[4-(6,7-dimethoxy-quinolin-4-yloxy)-phenyl]-2-trifluoromethoxy-benzenesulfonamide]
3.9 µM | 187 to 189 °C | COc1cc2nccc(Oc3ccc(NS(=O)(=O)c4ccc(Cl)s4)c(F)c3)c2cc1OC [Example A28, 5-Chloro-thiophene-2-sulfonic acid [4-(6,7-dimethoxy-quinolin-4-yloxy)-2-fluoro-phenyl]-amide]
> 10 µM | 242 to 244 °C | COc1ccc(S(=O)(=O)Nc2ccc(Oc3cc(C)nc4c(C(F)(F)F)cccc34)c(F)c2)c2ccccc12 [Example C08, 4-Methoxy-naphthalene-1-sulfonic acid [3-fluoro-4-(2-methyl-8-trifluoromethyl-quinolin-4-yloxy)-phenyl]-amide]
> 10 µM | 202 to 203 °C | Cc1cc(Oc2ccc(NS(=O)(=O)c3ccc(F)c(Cl)c3)c(F)c2)c2cccc(C(F)(F)F)c2n1 [Example C12, 3-Chloro-4-fluoro-N-[2-fluoro-4-(2-methyl-8-trifluoromethyl-quinolin-4-yloxy)-phenyl]-benzenesulfonamide]
> 10 µM | 133 to 135 °C | COc1cc2nccc(Oc3ccc(NS(=O)(=O)c4sc(NC(C)=O)cc4C)c(F)c3)c2cc1OC [Example A7, N-{5-[4-(6,7-Dimethoxy-quinolin-4-yloxy)-2-fluoro-phenylsulfamoyl]-4-methyl-thiophen-2-yl}-acetamide]
> 10 µM | 188 to 190 °C | COc1cc2nccc(Oc3ccc(NS(=O)(=O)c4cccc(-c5ncccn5)c4)cc3C)c2cc1OC [Example A132, N-[4-(6,7-Dimethoxy-quinolin-4-yloxy)-3-methyl-phenyl]-3-pyrimidin-2-yl-benzenesulfonamide]
> 1 µM | 226 to 227 °C | COc1cc2nccc(Oc3ccc(NS(=O)(=O)c4ccc(OC)c5ccccc45)c(F)c3)c2cc1OC [Example A63, 4-Methoxy-naphthalene-1-sulfonic acid [4-(6,7-dimethoxy-quinolin-4-yloxy)-2-fluoro-phenyl]-amide]
> 3 µM | 222 to 224 °C | COc1cc(S(=O)(=O)Nc2ccc(Oc3ccnc4cc(OC)c(OC)cc34)cc2)ccc1F [Example A116, N-[4-(6,7-Dimethoxy-quinolin-4-yloxy)-phenyl]-4-fluoro-3-methoxy-benzenesulfonamide]
> 1 µM | 194 to 195 °C | COc1cc2nccc(Oc3ccc(NS(=O)(=O)c4cccc(-c5ncccn5)c4)cc3)c2cc1OC [Example A82, N-[4-(6,7-Dimethoxy-quinolin-4-yloxy)-phenyl]-3-pyrimidin-2-yl-benzenesulfonamide]
0.068 µM | 206 to 208 °C | COc1cc2c(Oc3ccc(NS(=O)(=O)c4ccccc4OC(F)(F)F)cc3F)ccnc2cc1OCCCN1CCC(C)CC1 [Example D33, N-(3-Fluoro-4-{6-methoxy-7-[3-(4-methyl-piperidin-1-yl)-propoxy]-quinolin-4-yloxy}-phenyl)-2-trifluoromethoxy-benzenesulfonamide]
> 10 µM | 193 to 195 °C | Cc1cc(Oc2ccc(NS(=O)(=O)c3ccc(OCc4c(C)noc4C)cc3)cc2F)c2cccc(C(F)(F)F)c2n1 [Example C14, 4-(3,5-Dimethyl-isoxazol-4-ylmethoxy)-N-[3-fluoro-4-(2-methyl-8-trifluoromethyl-quinolin-4-yloxy)-phenyl]-benzenesulfonamide]
